Measured values as given in paper PMC2824700, “Genetic analysis of the Staphylococcus epidermidis Macromolecular Synthesis Operon: Serp1129 is an ATP binding protein and sigA transcription is regulated by both σ^A- and σ^B-dependent promoters” (BMC Microbiology, 2010).

Target: T1, Serp1129 (Staphylococcus epidermidis, UniProt Q5HNY5)
T1 construct: full ORF in pET30a+ (NcoI/BamHI), His-tagged, E. coli BL21(DE3), HisTrap purified
T1 sequence (Q5HNY5 1-272): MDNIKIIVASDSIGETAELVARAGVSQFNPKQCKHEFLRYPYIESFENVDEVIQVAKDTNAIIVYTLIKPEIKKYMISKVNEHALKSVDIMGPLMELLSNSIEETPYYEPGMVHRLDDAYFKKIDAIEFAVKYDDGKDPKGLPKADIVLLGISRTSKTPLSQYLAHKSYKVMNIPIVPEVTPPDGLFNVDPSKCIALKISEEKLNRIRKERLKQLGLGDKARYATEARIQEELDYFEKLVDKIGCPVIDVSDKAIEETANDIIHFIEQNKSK
Experiment: competition against biotinylated azidoanilide GTP photoaffinity label, streptavidin blot
Assay type: binding
Details: 5-30 uM unlabeled GTP versus 1 uM labelled analogue; 25 °C, 30 s, then UV 254 nm

## Nc1nc2c(ncn2[C@@H]2O[C@H](COP(=O)(O)OP(=O)(O)OP(=O)(O)O)[C@@H](O)[C@H]2O)c(=O)[nH]1 [GTP]
  competition against biotinylated azidoanilide GTP photoaffinity label, streptavi: A similar pattern was observed when GTP binding reactions were performed
